Test results published in PubChem BioAssay (NCI).
“And” between values parts separate entries of the source, which are not always exact repeats. Equal entries are not always repeated.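 Tested at 5 concentrations; 48 h exposure; 96-well plates; endpoints linearly interpolated, else capped at highest concentration. Abbreviation: GI50, concentration required for 50% inhibition of growth. TGI denotes the concentration required for complete inhibition of growth.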

Tests used:
Test in all cases: growth of human tumour cells (NCI), 48 h
SF-539 CNS = system: SF-539 CNS
HS 578T breast = system: HS 578T breast
EKVX NSCLC = system: EKVX NSCLC
SK-MEL-5 melanoma = system: SK-MEL-5 melanoma
LXFL 529 NSCLC = system: LXFL 529 NSCLC
ACHN renal = system: ACHN renal
A549 NSCLC = system: A549 NSCLC
LOX IMVI melanoma = system: LOX IMVI melanoma
KM20L2 colon = system: KM20L2 colon
KM12 colon = system: KM12 colon

Structure (SMILES) | TGI (SF-539 CNS) | GI50 (HS 578T breast) [nM] | TGI (HS 578T breast) | GI50 (EKVX NSCLC) [nM] | TGI (EKVX NSCLC) | GI50 (SK-MEL-5 melanoma) [nM] | TGI (SK-MEL-5 melanoma) | TGI (LXFL 529 NSCLC) | GI50 (ACHN renal) [nM] | TGI (ACHN renal) | GI50 (A549 NSCLC) [nM] | TGI (A549 NSCLC) | GI50 (LOX IMVI melanoma) [nM] | TGI (LOX IMVI melanoma) | TGI (KM20L2 colon) [µM] | GI50 (KM12 colon) [µM] | TGI (KM12 colon) | GI50 (SF-539 CNS) [nM] | GI50 (LXFL 529 NSCLC) [nM] | GI50 (KM20L2 colon) [nM]
COc1cc(/C=C2\CCC/C(=C\c3ccc(O)c(OC)c3)C2=O)ccc1O | 4.42 µM and 5.73 µM | 2250 | 26.5 µM and 8.93 µM | 2100 | 24.3 µM and 10.8 µM | 1540 | 6.82 µM and 3.09 µM | 4.22 µM | 1820 | 4.34 µM and 3.33 µM | 1960 | 10.8 µM and 5.04 µM | 1460 | 3.49 µM and 2.83 µM | 28.7 | 1.25 | 5.83 µM and 2.62 µM |  |  | 
Cn1c(=O)nc2n(-c3ccc(Cl)cc3)c3cc(Cl)ccc3nc-2c1=O | 30.4 µM |  | 5.59 µM |  | 17.7 µM |  | 3.07 µM | 3.13 µM |  | 25.5 µM |  | 33 µM |  | 5.84 µM | 35.7 |  | 25.6 µM |  |  | 
Cn1c2c(c3ccccc31)CCN(CCCCN1CCN(c3ccccc3)CC1)C2=O | > 100 µM |  | 50.6 µM |  | > 71.9 µM |  | 22.9 µM | > 100 µM |  | > 100 µM |  | > 100 µM |  | 32.1 µM | 33.6 |  | > 89.9 µM |  |  | 
CCN(CC)CC(C)C(=O)/C=C/c1ccc(C)cc1 (stereo not drawn) | 3.85 µM |  |  |  | 26.8 µM |  | 17 µM | 3.23 µM |  | 4.36 µM |  | 13.4 µM |  | 2.69 µM | 21.6 |  | 1.96 µM |  |  | 
c1ccncc1 | > 100 µM |  |  |  | > 100 µM |  | > 100 µM | > 100 µM |  | > 100 µM |  | > 100 µM |  | > 100 µM | > 100 |  | > 100 µM |  |  | 
O=[N+]([O-])c1ccc(C(Cl)C(Cl)c2ccc(C(Cl)C(Cl)c3ccc([N+](=O)[O-])cc3[N+](=O)[O-])cc2)c([N+](=O)[O-])c1 (stereo not drawn) | 5.35 µM and 11.6 µM |  |  | 559 | 6.18 µM and 2.49 µM | 172 | 1.86 µM and 0.335 µM | 1.9 µM and 0.377 µM | 268 | 6.04 µM and 0.85 µM | 362 | 5.04 µM and 4.46 µM | 403 | 5.96 µM and 1.72 µM | 2.28 |  | 0.812 µM | 466 | 179 | 
N#CCC(=O)N/N=C1/C(=O)N(c2cc(Cl)ccc2Cl)C(=O)C(=O)C1c1nc2ccccc2s1 (stereo not drawn) | > 100 µM |  |  |  | > 100 µM |  | > 100 µM | > 100 µM |  | > 100 µM |  | > 100 µM |  | > 100 µM | > 100 |  | > 100 µM |  |  | 
NC1CCCCC1N.O=C1C=C/C(=C(/c2ccc(O)c(Br)c2)c2ccccc2S(=O)(=O)[O-])C=C1Br.O=C1C=C/C(=C(/c2ccc(O)c(Br)c2)c2ccccc2S(=O)(=O)[O-])C=C1Br.[Pt+4] | 50.8 µM |  |  | 93000 | > 100 µM | 3290 | 21.4 µM | > 100 µM | 1420 | > 100 µM | 2420 | > 100 µM | 3180 | > 100 µM | > 100 | 32.6 | > 100 µM | 2620 | 4430 | 755
